Experimental data from patent US9232796B2, “Herbicidal compositions comprising 4-amino-3-chloro-5-fluoro-6-(4-chloro-2-fluoro-3-methoxyphenyl) pyridine-2-carboxylic acid or a derivative thereof and acetyl-CoA carboxylase (ACCase) inhibitors” (DOW AGROSCIENCES LLC, priority 2012, dated 2016).

Legend:
DIGSA = assay: Example I postemergence foliar-applied, greenhouse, direct seeded rice weeds; type: in vivo, Digitaria sanguinalis (L.) Scop.
Text: (§1) Seeds or nutlets of the desired test plant species were planted in a soil matrix prepared by mixing a loam or sandy loam soil (e.g., 28.6 percent silt, 18.8 percent clay, and 52.6 percent sand, with a pH of about 5.8 and an organic matter content of about 1.8 percent) and calcareous grit in an 80 to 20 ratio. The soil matrix was contained in plastic pots with a volume of 1 quart and a surface area of 83.6 square centimeters (cm^2). When required to ensure good germination and healthy plants, a fungicide treatment and/or other chemical or physical treatment was applied. The plants were grown for 8-22 days in a greenhouse with an approximate 14 hr. photoperiod which was maintained at about 29° C. during the day and 26° C. during the night. Nutrients (Peters Excel® 15-5-15 5-Ca 2-Mg and iron chelate) were applied in the irrigation solution as needed and water was added on a regular basis. Supplemental lighting was provided with overhead metal halide 1000-Watt lamps as necessary. The plants were employed for testing when they reached the first through fourth true leaf stage.
Treatments consisted of the acid or esters of 4-amino-3-chloro-5-fluoro-6-(4-chloro-2-fluoro-3-methoxy-phenyl)pyridine-2-carboxylic acid (Compound A), each formulated as an SC (suspension concentrate), and various herbicidal components alone and in combination. […]
(§2) Treatment requirements were calculated based upon the rates being tested, the concentration of active ingredient or acid equivalent in the formulation, and a 12 mL application volume at a rate of 187 L/ha.
For treatments comprised of formulated compounds, measured amounts of compounds were placed individually in 25 mL glass vials and diluted in a volume of 1.25% (v/v) Agri-Dex® crop oil concentrated to obtain 12× stock solutions. […]
(§3) The treated plants and control plants were placed in a greenhouse as described above and watered by sub-irrigation to prevent wash-off of the test compounds. After approximately 3 weeks, the condition of the test plants as compared with that of the untreated plants was determined visually and scored on a scale of 0 to 100 percent where 0 corresponds to no injury or growth inhibition and 100 corresponds to complete kill. […]

APESV = assay: Example IV postemergence foliar-applied, greenhouse, cereal crops weeds; type: in vivo, Apera spica-venti (L.) Beauv.
Experimental: (§4) Seeds of the desired test plant species were planted in Sun Gro MetroMix® 306 planting mixture, which typically has a pH of 6.0 to 6.8 and an organic matter content of about 30 percent, in plastic pots with a surface area of 103.2 square centimeters (cm^2). […] The plants were grown for 7-36 days in a greenhouse with an approximate 14 hour photoperiod which was maintained at about 18° C. during the day and about 17° C. during the night. Nutrients and water were added on a regular basis and supplemental lighting was provided with overhead metal halide 1000-Watt lamps as necessary. The plants were employed for testing when they reached the second or third true leaf stage.
(§5) Treatments consisted of the benzyl ester of 4-amino-3-chloro-5-fluoro-6-(4-chloro-2-fluoro-3-methoxy-phenyl)pyridine-2-carboxylic acid (Compound A), formulated as an SC, a second cereal herbicide alone and then both in combination.
(§6) Other herbicidal components were applied on an active ingredient basis and included acetyl-CoA carboxylase (ACCase)-inhibiting herbicides clodinafop-propargyl, fenoxaprop-P-ethyl, pinoxaden and tralkoxydim.
(§7) Measured aliquots of benzyl ester of 4-amino-3-chloro-5-fluoro-6-(4-chloro-2-fluoro-3-methoxy-phenyl)pyridine-2-carboxylic acid (Compound A) were placed in 25 milliliter (mL) glass vials and diluted in a volume of 1.25% (v/v) Agri-Dex® crop oil concentrate to obtain stock solutions. Compound requirements are based upon a 12 mL application volume at a rate of 187 liters per hectare (L/ha). […] Formulated compounds were applied to the plant material with an overhead Mandel track sprayer equipped with an 8002E nozzle calibrated to deliver 187 L/ha over an application area of 0.503 square meters (m^2) at a spray height of 18 inches (46 cm) above average plant canopy. Control plants were sprayed in the same manner with the solvent blank.
(§8) The treated plants and control plants were placed in a greenhouse as described above and watered by sub-irrigation to prevent wash-off of the test compounds. After 20-22 days, the condition of the test plants as compared with that of the control plants was determined visually and scored on a scale of 0 to 100 percent where 0 corresponds to no injury and 100 corresponds to complete kill.
(§9) Colby's equation was used to determine the herbicidal effects expected from the mixtures (Colby, S. R. 1967. Calculation of the synergistic and antagonistic response of herbicide combinations. Weeds 15:20-22.).
(§10) The following equation was used to calculate the expected activity of mixtures containing two active ingredients, A and B: Expected=A+B−(A×B/100)

PHAMI = assay: as above; type: in vivo, Phalaris minor Retz.
Experimental: as §4, §5, §6, §7, §8, §9, §10

BRAPP = assay: Example I postemergence foliar-applied, greenhouse, direct seeded rice weeds; type: in vivo, Brachiaria platyphylla (Griseb.) Nash
Text: as §1
(§11) Treatments consisted of the acid or esters of 4-amino-3-chloro-5-fluoro-6-(4-chloro-2-fluoro-3-methoxy-phenyl)pyridine-2-carboxylic acid (Compound A), each formulated as an SC (suspension concentrate), and various herbicidal components alone and in combination.
(§12) Other herbicidal components were applied on an acid equivalent (ae) or active ingredient (ai) basis and included acetyl coA carboxylase (ACCase)-inhibiting herbicides (cyclohexanedione and aryloxyphenoxypropionate chemical classes) cyhalofop-butyl formulated as Clincher® SF (285 gr ai/L EC), diclofop-methyl formulated as Hoelon® 3EC, fenoxaprop-p-ethyl+isoxadifen-ethyl formulated as RiceStar® HT (0.58 lb./gal EC), fenoxaprop-p-ethyl+mefenpyr diethyl formulated as Puma® IEC, metamifop formulated as Metamifop EC, haloxyfop-methyl formulated as Gallant Super®, fluazifop-p-butyl formulated as Fusilade® DX, quizalofop-p-ethyl formulated as Assure® II, profoxydim formulated as Aura® 20EC, clethodim applied as Intensity®, sethoxydim formulated as Poast®, and tralkoxydim formulated as Achieve®.
as §2
(§13) For treatments comprised of formulated compounds, measured amounts of compounds were placed individually in 25 mL glass vials and diluted in a volume of 1.25% (v/v) Agri-Dex® crop oil concentrated to obtain 12× stock solutions. […] Application solutions were prepared by adding an appropriate amount of each stock solution (e.g., 1 mL) and diluted to the appropriate final concentrations with the addition of 10 mL of an aqueous mixture of 1.25% (v/v) crop oil concentrate so that the final spray solutions contained 1.25+/−0.05% (v/v) crop oil concentrate.
All stock solutions and applications solutions were visually inspected for compound compatibility prior to application. Spray solutions were applied to the plant material with an overhead Mandel track sprayer equipped with a 8002E nozzles calibrated to deliver 187 L/ha over an application area of 0.503 m^2 at a spray height of 18 to 20 inches (46 to 50 cm) above average plant canopy height. Control plants were sprayed in the same manner with the solvent blank.
as §3

CYPDI = assay: as above; type: in vivo, Cyperus difformis L.; settings: 4.38 gae/ha
Text: as §1, §11, §12, §2, §13
All stock solutions and applications solutions were visually inspected for compound compatibility prior to application. […]
as §3

[1] = Compound A Benzyl Ester 5 gai/ha
[2] = Compound A Benzyl Ester 10 gai/ha

| SMILES | Visual Weed Control (%) - 20 DAA DIGSA Obs (DIGSA; 8 gae/ha) [%] | Visual Weed Control (%) - 20 DAA DIGSA Obs (DIGSA; 16 gae/ha) [%] | Visual Weed Control (%) - 20 DAA DIGSA Obs (DIGSA; 32 gae/ha) [%] | Visual Weed Control (%) - 21 DAA APESV Obs (APESV; [1]) [%] | Visual Weed Control (%) - 21 DAA APESV Obs (APESV; [2]) [%] | Visual Weed Control (%) - 21 DAA PHAMI Obs (PHAMI; [1]) [%] | Visual Weed Control (%) - 21 DAA PHAMI Obs (PHAMI; [2]) [%] | Visual Weed Control (%) - 20 DAA BRAPP Obs (BRAPP; 4.38 gae/ha) [%] | Visual Weed Control (%) - 20 DAA BRAPP Obs (BRAPP; 8 gae/ha) [%] | Visual Weed Control (%) - 20 DAA BRAPP Obs (BRAPP; 8.75 gae/ha) [%] | Visual Weed Control (%) - 20 DAA BRAPP Obs (BRAPP; 16 gae/ha) [%] | Visual Weed Control (%) - 20 DAA BRAPP Obs (BRAPP; 32 gae/ha) [%] | Visual Weed Control (%) - 20 DAA CYPDI Obs (CYPDI) [%] | Visual Weed Control (%) - 22 DAA CYPDI Obs (CYPDI) [%] |
| --- | --- | --- | --- | --- | --- | --- | --- | --- | --- | --- | --- | --- | --- | --- |
| COc1c(Cl)ccc(-c2nc(C(=O)OCc3ccccc3)c(Cl)c(N)c2F)c1F [Compound A Benzyl Ester, benzyl ester of 4-amino-3-chloro-5-fluoro-6-(4-chloro-2-fluoro-3-methoxy-phenyl)pyridine-2-carboxylic acid] | 15 | 25 | 35 | 0 | 0 | 0 | 0 | 50 | 70 | 70 | 75 | 90 | – | – |
| COc1c(Cl)ccc(-c2nc(C(=O)O)c(Cl)c(N)c2F)c1F [Compound A Acid, 4-amino-3-chloro-6-(4-chloro-2-fluoro-3-methoxyphenyl)-5-fluoropyridine-2-carboxylic acid] | – | – | – | – | – | – | – | – | – | – | – | – | 80 | 60 |
